According to PMC5696560 (Bioorganic & Medicinal Chemistry Letters, 2017):
≈ marks a conversion by molar mass, not a printed value.

Columns and labels:
M.tb strain H37Rv [1] = experiment: MABA: inhibition of growth of M.tb H37Rv under aerobic (replicating) conditions; format: cell-based; settings: Mycobacterium tuberculosis
M.tb strain H37Rv [2] = experiment: LORA: inhibition of growth of M.tb H37Rv under non-replicating conditions; format: cell-based; settings: Mycobacterium tuberculosis
Experimental: The compounds were evaluated for their inhibition of growth (measured as MIC90 values in µg/mL) against M.tb (strain H37Rv) under both replicating (MABA)[16] or non-replicating (LORA)[17] conditions. […] In a search for less lipophilic analogues, we prepared and evaluated compounds where this phenyl B-ring unit was replaced with different heterocycles of varying lipophilicity (Table 1).

[3] = Oral bioavailability in rats; settings: BioDuro LLC

Question: Which results are given for `COc1nc2ccc(Br)cc2cc1[C@@H](c1ccccc1)[C@@](O)(CCN(C)C)c1cccc2ccccc12` [Compound 1, bedaquiline, reference compound]?
Answer: MIC90 (M.tb strain H37Rv [1]; H37RV): 0.05 µg/mL (≈ 0.09 µM); MIC (M.tb strain H37Rv [1]; M.tb H37Rv, replicating, read-out: MIC (MABA)): 0.05 µM (≈ 0.0278 µg/mL); MIC90 (M.tb strain H37Rv [2]): 0.08 µg/mL (≈ 0.144 µM); MIC (M.tb strain H37Rv [2]; read-out: MIC (LORA)): 0.08 µM (≈ 0.0444 µg/mL); F(%) oral bioavailability [3]: 70%
